Measurements published in ChEMBL document CHEMBL4507276 (2021).

Tests used:
Settings in all cases: Compound concentration 1000.0 nM
[1] = tested on: Tyrosine-protein kinase ABL1 (Homo sapiens), P00519 [M351T]
[2] = molecular target: Tyrosine-protein kinase Blk (Homo sapiens) (UniProt P51451)
[3] = molecular target: Bone morphogenetic protein receptor type-1B (Homo sapiens) (UniProt O00238)
[4] = molecular target: Serine/threonine-protein kinase 17B (Homo sapiens) (UniProt O94768)
[5] = molecular target: Dual specificity tyrosine-phosphorylation-regulated kinase 1B (Homo sapiens) (UniProt Q9Y463)
Chain of Dual specificity tyrosine-phosphorylation-regulated kinase 1B (Homo sapiens) (Q9Y463 whole entry, looked up): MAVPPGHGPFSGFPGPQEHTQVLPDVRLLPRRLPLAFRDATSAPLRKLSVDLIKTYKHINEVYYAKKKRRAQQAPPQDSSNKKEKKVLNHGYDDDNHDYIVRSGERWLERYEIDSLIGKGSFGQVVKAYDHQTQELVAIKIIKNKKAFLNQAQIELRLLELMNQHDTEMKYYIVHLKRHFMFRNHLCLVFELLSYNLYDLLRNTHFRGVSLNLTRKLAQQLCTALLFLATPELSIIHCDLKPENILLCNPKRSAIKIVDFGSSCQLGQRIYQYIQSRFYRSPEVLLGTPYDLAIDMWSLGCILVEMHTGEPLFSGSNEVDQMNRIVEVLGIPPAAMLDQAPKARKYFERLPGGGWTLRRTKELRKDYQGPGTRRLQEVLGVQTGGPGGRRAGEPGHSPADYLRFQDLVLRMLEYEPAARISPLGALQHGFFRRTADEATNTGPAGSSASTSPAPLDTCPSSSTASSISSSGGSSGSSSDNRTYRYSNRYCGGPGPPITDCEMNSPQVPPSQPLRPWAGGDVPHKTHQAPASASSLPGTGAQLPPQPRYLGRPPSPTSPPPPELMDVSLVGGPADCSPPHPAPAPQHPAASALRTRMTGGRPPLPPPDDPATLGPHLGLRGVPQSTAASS

[6] = molecular target: T1, Interleukin-1 receptor-associated kinase 4 (Homo sapiens) (UniProt Q9NWZ3)
T1 sequence (whole entry): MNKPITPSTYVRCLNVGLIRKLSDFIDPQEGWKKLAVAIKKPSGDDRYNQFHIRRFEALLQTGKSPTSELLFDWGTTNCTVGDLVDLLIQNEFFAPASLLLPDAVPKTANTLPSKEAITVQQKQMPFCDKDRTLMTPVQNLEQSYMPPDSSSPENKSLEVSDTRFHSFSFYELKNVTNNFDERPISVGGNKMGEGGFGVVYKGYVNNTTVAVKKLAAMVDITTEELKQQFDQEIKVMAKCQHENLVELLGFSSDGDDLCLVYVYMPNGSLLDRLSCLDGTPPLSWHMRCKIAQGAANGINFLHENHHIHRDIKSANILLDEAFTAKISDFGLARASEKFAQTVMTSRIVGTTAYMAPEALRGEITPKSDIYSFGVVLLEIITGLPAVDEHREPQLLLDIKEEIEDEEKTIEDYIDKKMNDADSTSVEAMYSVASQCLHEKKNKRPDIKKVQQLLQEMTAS

[7] = molecular target: T2, Serine/threonine-protein kinase 3 (Homo sapiens) (UniProt Q13188)
T2 sequence (whole entry): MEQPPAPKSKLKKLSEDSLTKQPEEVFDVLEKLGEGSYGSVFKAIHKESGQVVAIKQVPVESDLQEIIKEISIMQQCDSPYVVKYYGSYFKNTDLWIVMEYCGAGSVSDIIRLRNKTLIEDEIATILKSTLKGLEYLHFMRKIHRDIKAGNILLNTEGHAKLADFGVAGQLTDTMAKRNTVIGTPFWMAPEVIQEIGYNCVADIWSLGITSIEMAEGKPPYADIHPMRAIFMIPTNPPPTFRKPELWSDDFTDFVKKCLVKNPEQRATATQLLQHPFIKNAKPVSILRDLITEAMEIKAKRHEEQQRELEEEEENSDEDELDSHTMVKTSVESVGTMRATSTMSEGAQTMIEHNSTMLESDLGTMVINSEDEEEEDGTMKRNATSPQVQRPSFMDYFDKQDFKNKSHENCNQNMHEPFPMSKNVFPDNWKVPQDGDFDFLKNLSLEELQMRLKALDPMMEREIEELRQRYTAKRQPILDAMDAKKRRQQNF

[8] = molecular target: Cyclin-dependent kinase 18 (Homo sapiens) (UniProt Q07002)
Chain of Cyclin-dependent kinase 18 (Homo sapiens) (Q07002 whole entry, canonical isoform): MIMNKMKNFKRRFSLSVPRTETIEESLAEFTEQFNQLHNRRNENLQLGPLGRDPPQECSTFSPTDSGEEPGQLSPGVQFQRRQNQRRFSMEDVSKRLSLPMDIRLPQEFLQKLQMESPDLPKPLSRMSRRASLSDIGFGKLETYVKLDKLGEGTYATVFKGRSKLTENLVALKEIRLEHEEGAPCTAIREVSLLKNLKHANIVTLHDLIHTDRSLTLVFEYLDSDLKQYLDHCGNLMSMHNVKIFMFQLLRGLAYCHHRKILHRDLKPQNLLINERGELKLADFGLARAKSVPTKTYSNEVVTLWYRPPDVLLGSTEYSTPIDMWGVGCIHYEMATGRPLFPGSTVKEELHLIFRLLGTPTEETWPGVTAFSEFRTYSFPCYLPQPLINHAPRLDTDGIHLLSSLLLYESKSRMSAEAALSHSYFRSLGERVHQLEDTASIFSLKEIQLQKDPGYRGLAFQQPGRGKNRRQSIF

[9] = tested on: Phosphatidylinositol 4,5-bisphosphate 3-kinase catalytic subunit alpha isoform (Homo sapiens), P42336 [C420R]
Chain of Phosphatidylinositol 4,5-bisphosphate 3-kinase catalytic subunit alpha isoform (Homo sapiens), P42336 [C420R] (P42336 whole entry C420R, canonical isoform): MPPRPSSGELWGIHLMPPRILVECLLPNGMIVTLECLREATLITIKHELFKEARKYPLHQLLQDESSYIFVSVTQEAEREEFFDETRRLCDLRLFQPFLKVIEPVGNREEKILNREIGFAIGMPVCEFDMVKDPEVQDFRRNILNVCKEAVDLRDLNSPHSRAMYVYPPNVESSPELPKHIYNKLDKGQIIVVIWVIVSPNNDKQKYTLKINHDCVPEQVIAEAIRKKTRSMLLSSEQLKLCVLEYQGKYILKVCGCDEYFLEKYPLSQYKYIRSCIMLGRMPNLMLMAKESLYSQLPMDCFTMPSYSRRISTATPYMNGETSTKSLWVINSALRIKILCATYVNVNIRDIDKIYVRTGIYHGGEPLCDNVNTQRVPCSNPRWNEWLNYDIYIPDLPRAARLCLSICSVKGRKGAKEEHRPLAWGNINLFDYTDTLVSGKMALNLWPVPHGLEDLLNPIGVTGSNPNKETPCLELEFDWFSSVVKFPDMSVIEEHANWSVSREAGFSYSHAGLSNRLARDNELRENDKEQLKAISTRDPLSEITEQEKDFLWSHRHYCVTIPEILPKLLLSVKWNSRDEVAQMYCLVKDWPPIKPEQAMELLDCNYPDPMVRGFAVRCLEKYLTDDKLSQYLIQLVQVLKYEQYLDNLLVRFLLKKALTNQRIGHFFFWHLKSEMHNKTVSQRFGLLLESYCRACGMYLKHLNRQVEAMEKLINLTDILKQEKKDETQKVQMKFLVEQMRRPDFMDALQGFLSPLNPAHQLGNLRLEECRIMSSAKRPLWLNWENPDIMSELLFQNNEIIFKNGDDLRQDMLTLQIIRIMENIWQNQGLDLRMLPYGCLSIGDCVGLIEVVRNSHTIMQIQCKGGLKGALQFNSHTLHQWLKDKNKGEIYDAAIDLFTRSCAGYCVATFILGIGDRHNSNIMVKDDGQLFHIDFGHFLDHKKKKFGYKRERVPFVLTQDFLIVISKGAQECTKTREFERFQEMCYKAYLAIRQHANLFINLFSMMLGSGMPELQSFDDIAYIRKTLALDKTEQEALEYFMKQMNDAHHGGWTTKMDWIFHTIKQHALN

[10] = molecular target: T3, Dual specificity protein kinase TTK (Homo sapiens) (UniProt P33981)
T3 sequence (whole entry): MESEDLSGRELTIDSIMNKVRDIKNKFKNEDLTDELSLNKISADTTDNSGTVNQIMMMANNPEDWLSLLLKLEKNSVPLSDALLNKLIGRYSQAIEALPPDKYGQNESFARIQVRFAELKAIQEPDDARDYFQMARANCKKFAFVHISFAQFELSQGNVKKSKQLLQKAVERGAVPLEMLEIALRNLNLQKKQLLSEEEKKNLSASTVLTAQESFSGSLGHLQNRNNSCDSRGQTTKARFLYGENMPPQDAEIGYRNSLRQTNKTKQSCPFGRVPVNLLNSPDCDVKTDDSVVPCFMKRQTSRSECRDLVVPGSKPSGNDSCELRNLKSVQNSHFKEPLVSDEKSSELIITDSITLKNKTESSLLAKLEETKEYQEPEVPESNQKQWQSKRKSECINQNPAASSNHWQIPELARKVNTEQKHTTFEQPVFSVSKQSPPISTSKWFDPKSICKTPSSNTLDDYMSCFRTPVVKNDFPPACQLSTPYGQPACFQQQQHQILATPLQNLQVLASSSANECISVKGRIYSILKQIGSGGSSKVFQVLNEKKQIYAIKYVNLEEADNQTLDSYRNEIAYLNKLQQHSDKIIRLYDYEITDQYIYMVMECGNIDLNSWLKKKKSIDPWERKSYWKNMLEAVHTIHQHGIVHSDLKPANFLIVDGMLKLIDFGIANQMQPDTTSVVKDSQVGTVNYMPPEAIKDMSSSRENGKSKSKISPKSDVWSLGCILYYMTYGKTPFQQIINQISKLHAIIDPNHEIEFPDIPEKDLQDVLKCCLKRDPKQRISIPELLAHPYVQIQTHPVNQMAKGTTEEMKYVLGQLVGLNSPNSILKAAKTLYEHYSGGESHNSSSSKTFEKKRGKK

Measured: residual activity

Chain of Bone morphogenetic protein receptor type-1B (Homo sapiens) (O00238 whole entry): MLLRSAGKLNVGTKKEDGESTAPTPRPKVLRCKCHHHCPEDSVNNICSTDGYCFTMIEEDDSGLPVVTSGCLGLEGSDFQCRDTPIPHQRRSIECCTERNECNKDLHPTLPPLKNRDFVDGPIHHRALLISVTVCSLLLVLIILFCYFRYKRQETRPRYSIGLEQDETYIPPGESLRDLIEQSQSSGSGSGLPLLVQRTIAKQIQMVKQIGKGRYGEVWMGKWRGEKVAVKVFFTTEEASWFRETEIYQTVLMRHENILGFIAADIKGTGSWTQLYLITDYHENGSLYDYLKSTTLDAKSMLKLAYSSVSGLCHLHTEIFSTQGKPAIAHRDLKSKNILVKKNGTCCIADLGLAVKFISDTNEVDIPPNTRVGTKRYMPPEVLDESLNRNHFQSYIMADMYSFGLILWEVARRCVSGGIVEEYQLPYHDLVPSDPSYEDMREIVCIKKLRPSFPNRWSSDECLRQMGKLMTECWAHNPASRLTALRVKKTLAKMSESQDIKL
Chain of Tyrosine-protein kinase Blk (Homo sapiens) (P51451 2-505 limits assumed): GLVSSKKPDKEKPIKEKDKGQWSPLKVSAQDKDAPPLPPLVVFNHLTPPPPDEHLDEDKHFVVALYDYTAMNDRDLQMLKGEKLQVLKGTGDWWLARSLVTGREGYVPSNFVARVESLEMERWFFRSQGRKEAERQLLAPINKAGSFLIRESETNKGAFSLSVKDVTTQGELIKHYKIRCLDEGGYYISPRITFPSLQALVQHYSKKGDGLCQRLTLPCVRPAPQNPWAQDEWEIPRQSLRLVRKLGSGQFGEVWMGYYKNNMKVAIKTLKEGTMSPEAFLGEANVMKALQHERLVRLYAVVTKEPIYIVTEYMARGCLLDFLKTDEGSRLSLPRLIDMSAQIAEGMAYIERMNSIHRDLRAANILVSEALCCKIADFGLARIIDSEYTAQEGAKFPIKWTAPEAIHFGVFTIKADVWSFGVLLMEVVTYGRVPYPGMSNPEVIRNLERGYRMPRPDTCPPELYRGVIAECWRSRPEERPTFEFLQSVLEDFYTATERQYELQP
Chain of Serine/threonine-protein kinase 17B (Homo sapiens) (O94768 whole entry): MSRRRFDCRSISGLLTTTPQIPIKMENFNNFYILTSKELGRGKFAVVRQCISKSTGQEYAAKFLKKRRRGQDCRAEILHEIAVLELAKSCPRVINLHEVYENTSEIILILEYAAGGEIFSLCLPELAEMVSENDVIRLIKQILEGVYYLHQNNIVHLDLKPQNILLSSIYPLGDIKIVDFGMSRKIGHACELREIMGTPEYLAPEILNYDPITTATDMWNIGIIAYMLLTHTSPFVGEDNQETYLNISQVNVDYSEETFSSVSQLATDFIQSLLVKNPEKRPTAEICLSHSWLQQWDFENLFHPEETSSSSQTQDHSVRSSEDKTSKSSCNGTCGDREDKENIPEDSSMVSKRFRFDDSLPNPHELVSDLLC

CN(C)C(=O)Cn1cc(-c2nc(C3(c4ccc(-c5cnc(N)nc5)cc4)CC3)no2)cn1 [BI 0153]
inactive: [1] 100% | [2] 83% | [3] 99% | [4] 100% | [5] 66% | [6] 84% | [7] 100% | [8] 83% | [9] 95% | [10] 100%

CN(C)C(=O)Cn1cc(-c2nc([C@@](C)(c3ccc(-c4cnc(N)nc4)cc3)C3CC3)no2)cn1 [BI 665915]
inactive: [1] 80% | [2] 98% | [3] 76% | [4] 88% | [5] 98% | [6] 85% | [7] 100% | [8] 100% | [9] 73% | [10] 100%
